13 compounds from ChEMBL document CHEMBL5244235, “Diarylpentanoids with antitumor activity: A critical review of structure-activity relationship studies” (Eur J Med Chem, 2020) can be followed below.

Usually IC50 stands for the point on the concentration scale where inhibition reaches its midpoint. Broadly, the EC50 is the midpoint of the concentration-response curve. Usually inhibition stands for how much of the control response was suppressed. As usually defined, the GI50 is the concentration at which growth is held to half of that of the control.

Data set [1] concerns L1210. Briefly: Antiproliferative activity against mouse L1210 cells assessed as inhibition of cell growth. It is filed as functional, cell-based.
For data set [2], the system named is B16. Briefly: Antiproliferative activity against mouse B16 cells assessed as cell growth inhibition. It is filed as functional, cell-based.
The test system of data set [3] is AGS. Description: Antiproliferative activity against human AGS cells assessed as cell growth inhibition measured upto 72 hrs by MTT assay. It is filed as functional, cell-based. On the technique in general: Tetrazolium assays rely on reduction of a dye to a coloured formazan, in cell work by metabolically active cells.
Data set [4] relates to KYSE-30. Description: Antiproliferative activity against human KYSE-30 cells assessed as cell growth inhibition measured upto 72 hrs by MTT assay. The class given is functional, cell-based. The settings on record: KYSE-30, 72 h.
For data set [5], the system named is Ca-Ski. Briefly: Antiproliferative activity against human Ca-Ski cells assessed as cell growth inhibition measured after 72 hrs by MTT assay. It is filed as functional, cell-based.
A short description of data set [6]: Antiproliferative activity against human MRC9 cells assessed as cell growth inhibition measured after 72 hrs by MTT assay. It is filed as functional, cell-based. The settings on record: MRC9, 72 h.
Data set [7] concerns HeLa. Description: Antiproliferative activity against human HeLa cells assessed as cell growth inhibition measured after 72 hrs by MTT assay. It is filed as functional, cell-based.
Data set [8] can be described thus: Antiproliferative activity against human SH-10-TC cells assessed as cell growth inhibition measured after 72 hrs. The class given is functional, cell-based.
Data set [9] deals with HCT-116. Description: Antiproliferative activity against human HCT-116 cells assessed as cell growth inhibition measured after 72 hrs. The class given is functional, cell-based. The settings on record: HCT-116, 72 h.
For data set [10], the system named is A-431. Briefly: Antiproliferative activity against human A-431 cells assessed as cell growth inhibition measured after 72 hrs. The class given is functional, cell-based. The settings on record: A-431, 72 h.
The subject of data set [11] is DLD-1. Briefly: Antiproliferative activity against human DLD-1 cells assessed as cell growth inhibition measured after 72 hrs. It is filed as functional, cell-based. The settings on record: DLD-1, 72 h.
For data set [12], the system named is A549. Description: Antiproliferative activity against human A549 cells assessed as cell growth inhibition measured after 72 hrs. It is filed as functional, cell-based. The settings on record: A549, 72 h.
Data set [13] has as its system 8505C. Description: Antiproliferative activity against human 8505C cells assessed as cell growth inhibition measured after 72 hrs. It is filed as functional, cell-based.
The test system of data set [14] is Huh-7. Briefly: Antiproliferative activity against human Huh-7 cells assessed as cell growth inhibition measured after 72 hrs. The class given is functional, cell-based. The settings on record: Huh-7, 72 h.
Data set [15] is described as follows: Antiproliferative activity against human OVK18 cells assessed as cell growth inhibition measured after 72 hrs. It is filed as functional, cell-based. The settings on record: OVK18, 72 h.
The subject of data set [16] is DLD-1. Description: Antiproliferative activity against human DLD-1 cells assessed as cell growth inhibition measured after 96 hrs. The class given is functional, cell-based. The settings on record: DLD-1, 96 h.
Data set [17] relates to GCIY. Description: Antiproliferative activity against human GCIY cells assessed as cell growth inhibition measured after 72 hrs. The class given is functional, cell-based.
The test system of data set [18] is ACHN. Description: Antiproliferative activity against human ACHN cells assessed as cell growth inhibition measured after 72 hrs. The class given is functional, cell-based.
Data set [19] concerns MCF7. Description: Antiproliferative activity against human MCF7 cells assessed as cell growth inhibition measured after 72 hrs. It is filed as functional, cell-based. The settings on record: MCF7, 72 h.
The nature of data set [20]: Antiproliferative activity against human PK-1 cells assessed as cell growth inhibition measured after 72 hrs. It is filed as functional, cell-based. The settings on record: PK-1, 72 h.
The subject of data set [21] is HuCCT-1. Description: Antiproliferative activity against human HuCCT-1 cells assessed as cell growth inhibition measured after 72 hrs. It is filed as functional, cell-based. The settings on record: HuCCT-1, 72 h.
Data set [22] concerns G-361. Description: Antiproliferative activity against human G-361 cells assessed as cell growth inhibition measured after 72 hrs. The class given is functional, cell-based. The settings on record: G-361, 72 h.
Data set [23] relates to PC-3. Description: Antiproliferative activity against human PC-3 cells assessed as cell growth inhibition measured after 72 hrs. The class given is functional, cell-based. The settings on record: PC-3, 72 h.
Data set [24] concerns HUVEC. Description: Anti-angiogenesis activity in HUVEC cells. The class given is functional, cell-based. The settings on record: Homo sapiens.
Data set [25] has as its system NCI-H460. Description: Antiproliferative activity against human NCI-H460 cells assessed as cell growth inhibition measured after 24 hrs by MTT assay. The class given is functional, cell-based. The settings on record: NCI-H460, 24 h.
The test system of data set [26] is A549. Briefly: Antiproliferative activity against human A549 cells assessed as cell growth inhibition measured after 24 hrs by MTT assay. The settings on record: A549, 24 h. It is filed as functional, cell-based.
A short description of data set [27]: Cytotoxicity activity against mouse SVR cells assessed as cell growth inhibition at 6 ug/ml relative to control. The class given is toxicity, cell-based. The settings on record: at 6 µg/mL.
Data set [28] is described as follows: Cytotoxicity activity against mouse SVR cells assessed as cell growth inhibition at 3 ug/ml relative to control. It is filed as toxicity, cell-based. The settings on record: at 3 µg/mL.
The test system of data set [29] is MDA-MB-231. Briefly: Growth inhibition of human MDA-MB-231 cells measured after 72 hrs by microplate reader analysis. The class given is functional.
The nature of data set [30]: Cytotoxicity against mouse SVR cells assessed as cell growth inhibition by anti-angiogenisis screening assay. The class given is toxicity, cell-based.
Data set [31] is described as follows: Cytotoxicity against mouse MS-1 cells assessed as cell growth inhibition by anti-angiogenisis screening assay. The class given is toxicity, cell-based.
The test system of data set [32] is NCI-H460. Description: Anticancer activity against human NCI-H460 cells assessed as cell growth inhibition. It is filed as functional.
A short description of data set [33]: Cytotoxicity against HUVEC cells assessed as cell growth inhibition by anti-angiogenisis screening assay. It is filed as toxicity, cell-based. The settings on record: human.
The test system of data set [34] is RPMI-7951. Briefly: Growth inhibition of human RPMI-7951 cells measured after 72 hrs by microplate reader analysis. The class given is functional, cell-based. The settings on record: RPMI-7951, time 72 hrs.
The subject of data set [35] is A549. Description: Anticancer activity against human A549 cells assessed as cell growth inhibition. The class given is functional.
For data set [36], the system named is MDA-MB-231. Briefly: Antiproliferative activity against lung metastasis variant of human MDA-MB-231 cells assessed as cell growth inhibition. The class given is functional, cell-based.
In data set [37] the test system is HCC1419. Description: Antiproliferative activity against human HCC1419 cells assessed as cell growth inhibition. It is filed as functional, cell-based.
Data set [38] relates to MCF7. Description: Antiproliferative activity against human MCF7 cells assessed as cell growth inhibition. It is filed as functional, cell-based.
Data set [39] relates to MDA-MB-231. Description: Antiproliferative activity against human MDA-MB-231 cells assessed as cell growth inhibition. It is filed as functional, cell-based.
A short description of data set [40]: Antiproliferative activity against human MCF-10A cells assessed as cell growth inhibition. It is filed as toxicity, cell-based.
The test system of data set [41] is LS174T. Briefly: Antiproliferative activity against human LS174T cells assessed as cell growth inhibition by MTT assay. It is filed as functional, cell-based.
A short description of data set [42]: Antiproliferative activity against human H-111-TC cells assessed as cell growth inhibition by MTT assay. It is filed as functional, cell-based.
In data set [43] the test system is GCIY. Briefly: Antiproliferative activity against human GCIY cells assessed as cell growth inhibition by MTT assay. The class given is functional, cell-based.
Data set [44] is described as follows: Antiproliferative activity against human KATO III stomach cancer cell line assessed as cell growth inhibition by MTT assay. It is filed as functional, cell-based.
Data set [45] in a line: Antiproliferative activity against human SH-10-TC cells assessed as cell growth inhibition by MTT assay. The class given is functional, cell-based.
In data set [46] the test system is HCT-116. Description: Antiproliferative activity against human HCT116 cells assessed as cell growth inhibition measured after 96 hrs. It is filed as functional, cell-based. The settings on record: HCT-116, 96 h.

Several values for one entry are separate records, joined by “and”; a condition that tells them apart may be missing. Equal entries are not always repeated.

For the compound `COc1cc(/C=C2\CNC/C(=C\c3cc(OC)cc(OC)c3OC)C2=O)c(OC)c(OC)c1`, the IC50 in data set [1] is 0.3 µM; in data set [2], 0.2 µM.
`C#CCOc1ccc(/C=C2\CCC/C(=C\c3ccc(OCC#C)c(OC)c3)C2=O)cc1OC`: the IC50 in [3] stood at 0.56 µM; in data set [4], 3.6 µM.
For `O=C1/C(=C/c2cccc(F)c2)CCC/C1=C\c1cccc(F)c1`, the EC50 in data set [5] worked out at 6 µM; in [6] it was 16.4 µM; in data set [7] (Homo sapiens, HeLa, 72 h), 8.3 µM.
Turning to `O=C1/C(=C/c2ccccc2)CCC/C1=C\c1ccccc1` [2,6-DIBENZYLIDENECYCLOHEXANONE], the IC50 in [8], in [9], in data set [10], in data set [11], in [12] and in data set [13] was > 50 µM each time. For the same compound, the IC50 in [14] is > 50 µM; in data set [15] it was > 50 µM; in data set [16], 3 µM; in data set [17], > 50 µM; in data set [18], > 50 µM; in data set [19], > 50 µM. In addition, the IC50 in data set [20], in data set [21], in data set [22] and in data set [23] was > 50 µM in each case.
Take `COc1cc(/C=C/C(=O)/C=C/c2cc(OC)c(OC)c(OC)c2)cc(OC)c1O`: the IC50 in data set [8], in data set [9], in data set [10], in [11], in data set [12] and in [13] was 1 µM in each case. The IC50 turned out to be 1 µM in data set [14]; 1 µM in data set [15]; 1 µM in [17]; 0.4 µM in data set [24]; 1 µM in [18]; 1 µM in data set [19]. In addition, the half-inhibitory concentration (IC50) in [20], in [21], in data set [22] and in data set [23] was 1 µM each time.
On to `CCN1C/C(=C\c2ccc(OC)c(OC)c2OC)C(=O)/C(=C/c2ccc(OC)c(OC)c2OC)C1`, for which the concentration for half-maximal inhibition (IC50) worked out at 2.3 µM in data set [25] and 5.3 µM in [26].
As to `O=C1/C(=C/c2ccccn2)CCC/C1=C\c1ccccn1`, in [27], the inhibition at 6 ug/ml turned out to be 96%. Also, in data set [28], the inhibition at 3 ug/ml came to 90.1%.
On to `O=C(/C=C/c1ccccc1F)/C=C/c1ccccc1F`, for which the GI50 in [29] stood at 1 µM; in data set [30], 6.1 µM; in [31], 6.1 µM; in data set [32], 11.3 µM; in [33] it was 6.1 µM; in data set [34], 2.3 µM. The GI50 in [35] came to 17 µM.
Turning to `Cc1ccc(/C=C2\CN(C(=O)c3ccc(OCCN(C)C)cc3)C/C(=C\c3ccc(C)cc3)C2=O)cc1`, the IC50 in [36] amounted to 0.53 µM; in data set [37], 1.46 µM; in data set [38], 1.64 µM; in [39], 0.72 µM; in data set [40], 41 µM.
On to `O=C(/C=C/c1ccccc1O)/C=C/c1ccccc1O`, for which the GI50 in data set [29] turned out to be 1 µM; in [30] it was 1.8 µM; in [31], 1.8 µM; in data set [33] it was 1.8 µM; in [34], 2.3 µM. Further, the EC50 in data set [5] is 1.03 µM; in data set [6] it was 4.6 µM; in [7] (hela) it was 1.03 µM and 2.6 µM.
`COc1cc(/C=C/C(=O)/C=C/c2ccc(O)c(OC)c2)ccc1O`: the IC50 came out at 3.7 µM in data set [41]; 3.67 µM in data set [42]; 7.32 µM in data set [43]; 5.98 µM in [44]; 0.4 µM in [24]; 3.28 µM in data set [45]. Besides, the EC50 was found to be 1.03 µM in data set [5] and 1.03 µM in data set [7] (Homo sapiens, HeLa, 72 h).
With `COc1cc(/C=C/C(=O)CC(=O)/C=C/c2ccc(O)c(OC)c2)ccc1O` [CURCUMIN], the IC50 was determined as 5.3 µM in [25] and 32.5 µM in data set [26].
In the case of `COc1cc(/C=C/C(=O)/C=C/c2cc(OC)c(OC)c(OC)c2)cc(OC)c1OC`, in [46], the IC50 turned out to be 0.25 µM.
